The molecules below were run on Southern corn rootworm (Diabrotica undecimpuctata howardi Barber) (assay: Mite/insect screen, corn rootworm). Details: Diabrotica; CRW rate 12.00 ppm, soil; read-out: CRW results (percent mortality).
Type: in vivo
Procedure: (§1) The compounds of Examples were tested for miticidal and insecticidal activity in the following mite/insect screen.
(§2) Each test compound was formulated by dissolving the compound in acetone/alcohol (50:50) mixture containing 23 g of "TOXIMUL R" (sulfonate/nonionic emulsifier blend) and 13 g of "TOXIMUL S" (sulfonate/nonionic emulsifier blend) per liter. These mixtures were then diluted with water to give the indicated concentrations.
Activity on Southern corn rootworm (Diabrotica undecimpuctata howardi Barber) was evaluated by adding two ml of tap water, a presoaked corn seed, and 15 g of dry sandy soil to a one ounce plastic container. The soil was treated with 1 mL of test solution containing a predetermined concentration of test compound. After six to 12 hours of drying, five 2-3 instar corn rootworm larvae were added to the individual cups, which were then capped and held at 23° C.
(§3) After standard exposure periods, percent mortality and phytotoxicity were evaluated. […] The following abbreviations are used in Table 3:
CRW refers to corn rootworm
With `Cc1coc2ncnc(NCCc3ccccc3)c12` [Example 19, 5-methyl-N-(2-phenylethyl)furo[2,3-d]pyrimidin-4-amine] the mortality at 12 ppm was 0%.
For `Cc1oc2ncnc(OCCCc3cccnc3)c2c1C` [Example 13, 5,6-dimethyl-4-[3-(3-pyridinyl)propoxy]furo[2,3-d]pyrimidine], the mortality at 12 ppm was 0%.
In the case of `Cc1oc2ncnc(NCCSCc3c(F)cccc3Cl)c2c1C` [Example 14, 5,6 dimethyl-N-[2-[[(2-chloro-6-fluorophenyl)methyl]thio]ethyl]furo[2,3-d]pyrimidin-4-amine], the mortality at 12 ppm was 0%.

Same assay, conditions: Diabrotica; CRW rate 24.00 ppm, soil; read-out: CRW results (percent mortality)
`CCCC(C)(CC)Oc1ccc(CCOc2ncnc3oc(C)c(C)c23)cc1` (stereo not drawn) [Example 74, 5,6-dimethyl-4-[2-[4-(1-ethyl-1-methylbutoxy)phenyl]ethoxy]furo[2,3-d]pyrimidine] was tested, and the mortality at 24 ppm was 0%.
`Cc1coc2ncnc(NCCc3ccccc3)c12` [Example 19, 5-methyl-N-(2-phenylethyl)furo[2,3-d]pyrimidin-4-amine] gave a mortality at 24 ppm of 0%.
`Cc1oc2ncnc(OCCCc3cccnc3)c2c1C` [Example 13, 5,6-dimethyl-4-[3-(3-pyridinyl)propoxy]furo[2,3-d]pyrimidine] gave a mortality at 24 ppm of 100%.
`Cc1oc2ncnc(NCCSCc3c(F)cccc3Cl)c2c1C` [Example 14, 5,6 dimethyl-N-[2-[[(2-chloro-6-fluorophenyl)methyl]thio]ethyl]furo[2,3-d]pyrimidin-4-amine] showed a mortality at 24 ppm of 0%.

Each molecule was assayed on Erysiphe graminis tritici (powdery mildew) (assay: Plant pathology screen (Test 1), powdery mildew on wheat). Details: Blumeria graminis, in Triticum aestivum, foliar, read-out: POWD MDEW control rating.
In the case of `CCCC(C)(CC)Oc1ccc(CCOc2ncnc3oc(C)c(C)c23)cc1` (stereo not drawn) [Example 74, 5,6-dimethyl-4-[2-[4-(1-ethyl-1-methylbutoxy)phenyl]ethoxy]furo[2,3-d]pyrimidine], the pest or weed control at 400 µg/mL was 0 to 19%.
`Cc1coc2ncnc(NCCc3ccccc3)c12` [Example 19, 5-methyl-N-(2-phenylethyl)furo[2,3-d]pyrimidin-4-amine] showed a pest or weed control at 400 µg/mL of 20 to 89%.
For `Cc1oc2ncnc(OCCCc3cccnc3)c2c1C` [Example 13, 5,6-dimethyl-4-[3-(3-pyridinyl)propoxy]furo[2,3-d]pyrimidine], the pest or weed control at 400 µg/mL was 0 to 19%.
`Cc1oc2ncnc(NCCSCc3c(F)cccc3Cl)c2c1C` [Example 14, 5,6 dimethyl-N-[2-[[(2-chloro-6-fluorophenyl)methyl]thio]ethyl]furo[2,3-d]pyrimidin-4-amine] gave a pest or weed control at 400 µg/mL of 0 to 19%.

The molecules below were run on Pyricularia oryzae (rice blast) (assay: whole plant or invertebrate). Details: foliar, read-out: RICE BLAST control rating.
Type: in vivo
Work on `CCCC(C)(CC)Oc1ccc(CCOc2ncnc3oc(C)c(C)c23)cc1` (stereo not drawn) [Example 74, 5,6-dimethyl-4-[2-[4-(1-ethyl-1-methylbutoxy)phenyl]ethoxy]furo[2,3-d]pyrimidine] yielded a pest or weed control at 400 µg/mL of 0 to 19%.
`Cc1coc2ncnc(NCCc3ccccc3)c12` [Example 19, 5-methyl-N-(2-phenylethyl)furo[2,3-d]pyrimidin-4-amine] gave a pest or weed control at 400 µg/mL of 0 to 19%.
Work on `Cc1oc2ncnc(OCCCc3cccnc3)c2c1C` [Example 13, 5,6-dimethyl-4-[3-(3-pyridinyl)propoxy]furo[2,3-d]pyrimidine] yielded a pest or weed control at 400 µg/mL of 0 to 19%.
`Cc1oc2ncnc(NCCSCc3c(F)cccc3Cl)c2c1C` [Example 14, 5,6 dimethyl-N-[2-[[(2-chloro-6-fluorophenyl)methyl]thio]ethyl]furo[2,3-d]pyrimidin-4-amine] showed a pest or weed control at 400 µg/mL of 0 to 19%.

What follows are molecules tested on Puccinia recondita tritici (leaf rust) (assay: Plant pathology screen (Test 1), leaf rust on wheat). Details: in Triticum aestivum, foliar, read-out: LEAF RUST control rating.
With `CCCC(C)(CC)Oc1ccc(CCOc2ncnc3oc(C)c(C)c23)cc1` (stereo not drawn) [Example 74, 5,6-dimethyl-4-[2-[4-(1-ethyl-1-methylbutoxy)phenyl]ethoxy]furo[2,3-d]pyrimidine] the pest or weed control at 400 µg/mL was 0 to 19%.
Molecule `Cc1coc2ncnc(NCCc3ccccc3)c12` [Example 19, 5-methyl-N-(2-phenylethyl)furo[2,3-d]pyrimidin-4-amine] has a pest or weed control at 400 µg/mL of 90 to 100%.
For `Cc1oc2ncnc(OCCCc3cccnc3)c2c1C` [Example 13, 5,6-dimethyl-4-[3-(3-pyridinyl)propoxy]furo[2,3-d]pyrimidine], the pest or weed control at 400 µg/mL was 0 to 19%.
`Cc1oc2ncnc(NCCSCc3c(F)cccc3Cl)c2c1C` [Example 14, 5,6 dimethyl-N-[2-[[(2-chloro-6-fluorophenyl)methyl]thio]ethyl]furo[2,3-d]pyrimidin-4-amine] showed a pest or weed control at 400 µg/mL of 0 to 19%.

What follows are molecules tested on Botrytis cinerea (gray mold) (assay: Plant pathology screen (Test 1), gray mold on grape berries). Details: read-out: GRAY MOLD control rating.
In the case of `CCCC(C)(CC)Oc1ccc(CCOc2ncnc3oc(C)c(C)c23)cc1` (stereo not drawn) [Example 74, 5,6-dimethyl-4-[2-[4-(1-ethyl-1-methylbutoxy)phenyl]ethoxy]furo[2,3-d]pyrimidine], the pest or weed control at 400 µg/mL was 0 to 19%.
For `Cc1coc2ncnc(NCCc3ccccc3)c12` [Example 19, 5-methyl-N-(2-phenylethyl)furo[2,3-d]pyrimidin-4-amine], the pest or weed control at 400 µg/mL was 0 to 19%.
With `Cc1oc2ncnc(OCCCc3cccnc3)c2c1C` [Example 13, 5,6-dimethyl-4-[3-(3-pyridinyl)propoxy]furo[2,3-d]pyrimidine] the pest or weed control at 400 µg/mL was 0 to 19%.
`Cc1oc2ncnc(NCCSCc3c(F)cccc3Cl)c2c1C` [Example 14, 5,6 dimethyl-N-[2-[[(2-chloro-6-fluorophenyl)methyl]thio]ethyl]furo[2,3-d]pyrimidin-4-amine] showed a pest or weed control at 400 µg/mL of 0 to 19%.

The molecules below were run on melon aphids (Aphis gossvpii Glover) (assay: Mite/insect screen, melon aphids). Details: Aphis; rate 200 ppm, sprayed leaves; read-out: MA results (percent mortality).
Type: in vivo
Procedure: as §1, §2
(§4) Twospotted spider mites (Tetranychus urticae Koch) and melon aphids (Aphis gossvpii Glover) were introduced on squash cotyledons and allowed to establish on both leaf surfaces. Other plants in the same treatment pot were left uninfested. The leaves were then sprayed with 5 ml of test solution using a DeVilbiss atomizing sprayer at 10 psi. Both surfaces of the leaves were covered until runoff, and then allowed to dry for one hour. Two uninfested leaves were then excised and placed into a Petri dish containing larval southern armyworm (Spodopetra eridania Cramer).
as §3
MA refers to melon aphids.
`Cc1coc2ncnc(NCCc3ccccc3)c12` [Example 19, 5-methyl-N-(2-phenylethyl)furo[2,3-d]pyrimidin-4-amine] was tested, and the mortality at 200 ppm was 0%.
`Cc1oc2ncnc(OCCCc3cccnc3)c2c1C` [Example 13, 5,6-dimethyl-4-[3-(3-pyridinyl)propoxy]furo[2,3-d]pyrimidine] showed a mortality at 200 ppm of 0%.
`Cc1oc2ncnc(NCCSCc3c(F)cccc3Cl)c2c1C` [Example 14, 5,6 dimethyl-N-[2-[[(2-chloro-6-fluorophenyl)methyl]thio]ethyl]furo[2,3-d]pyrimidin-4-amine] showed a mortality at 200 ppm of 0%.

Same assay, conditions: Aphis; rate 400 ppm, sprayed leaves; read-out: MA results (percent mortality)
Work on `CCCC(C)(CC)Oc1ccc(CCOc2ncnc3oc(C)c(C)c23)cc1` (stereo not drawn) [Example 74, 5,6-dimethyl-4-[2-[4-(1-ethyl-1-methylbutoxy)phenyl]ethoxy]furo[2,3-d]pyrimidine] yielded a mortality at 400 ppm of 90%.
`Cc1coc2ncnc(NCCc3ccccc3)c12` [Example 19, 5-methyl-N-(2-phenylethyl)furo[2,3-d]pyrimidin-4-amine] gave a mortality at 400 ppm of 90%.
In the case of `Cc1oc2ncnc(OCCCc3cccnc3)c2c1C` [Example 13, 5,6-dimethyl-4-[3-(3-pyridinyl)propoxy]furo[2,3-d]pyrimidine], the mortality at 400 ppm was 0%.
`Cc1oc2ncnc(NCCSCc3c(F)cccc3Cl)c2c1C` [Example 14, 5,6 dimethyl-N-[2-[[(2-chloro-6-fluorophenyl)methyl]thio]ethyl]furo[2,3-d]pyrimidin-4-amine] showed a mortality at 400 ppm of 0%.

Each molecule was assayed on Pseudoperonospora cubensis (downy mildew) (assay: Plant pathology screen (Test 1), downy mildew on squash). Details: foliar, read-out: DOWN MDEW control rating.
Work on `CCCC(C)(CC)Oc1ccc(CCOc2ncnc3oc(C)c(C)c23)cc1` (stereo not drawn) [Example 74, 5,6-dimethyl-4-[2-[4-(1-ethyl-1-methylbutoxy)phenyl]ethoxy]furo[2,3-d]pyrimidine] yielded a pest or weed control at 400 µg/mL of 20 to 89%.
For `Cc1coc2ncnc(NCCc3ccccc3)c12` [Example 19, 5-methyl-N-(2-phenylethyl)furo[2,3-d]pyrimidin-4-amine], the pest or weed control at 400 µg/mL was 90 to 100%.
`Cc1oc2ncnc(OCCCc3cccnc3)c2c1C` [Example 13, 5,6-dimethyl-4-[3-(3-pyridinyl)propoxy]furo[2,3-d]pyrimidine] gave a pest or weed control at 400 µg/mL of 0 to 19%.
Molecule `Cc1oc2ncnc(NCCSCc3c(F)cccc3Cl)c2c1C` [Example 14, 5,6 dimethyl-N-[2-[[(2-chloro-6-fluorophenyl)methyl]thio]ethyl]furo[2,3-d]pyrimidin-4-amine] has a pest or weed control at 400 µg/mL of 0 to 19%.

These molecules were tested on Twospotted spider mites (Tetranychus urticae Koch) (assay: Mite/insect screen, twospotted spider mites). Details: Tetranychus urticae, rate 200 ppm, sprayed leaves; read-out: SM results (percent mortality).
Type: in vivo
Procedure: as §1, §2, §4, §3
SM refers to twospotted spider mites
With `Cc1coc2ncnc(NCCc3ccccc3)c12` [Example 19, 5-methyl-N-(2-phenylethyl)furo[2,3-d]pyrimidin-4-amine] the mortality at 200 ppm was 0%.
With `Cc1oc2ncnc(OCCCc3cccnc3)c2c1C` [Example 13, 5,6-dimethyl-4-[3-(3-pyridinyl)propoxy]furo[2,3-d]pyrimidine] the mortality at 200 ppm was 0%.
Molecule `Cc1oc2ncnc(NCCSCc3c(F)cccc3Cl)c2c1C` [Example 14, 5,6 dimethyl-N-[2-[[(2-chloro-6-fluorophenyl)methyl]thio]ethyl]furo[2,3-d]pyrimidin-4-amine] has a mortality at 200 ppm of 0%.

Same assay, conditions: Tetranychus urticae, rate 400 ppm, sprayed leaves; read-out: SM results (percent mortality)
In the case of `CCCC(C)(CC)Oc1ccc(CCOc2ncnc3oc(C)c(C)c23)cc1` (stereo not drawn) [Example 74, 5,6-dimethyl-4-[2-[4-(1-ethyl-1-methylbutoxy)phenyl]ethoxy]furo[2,3-d]pyrimidine], the mortality at 400 ppm was 100%.
Work on `Cc1coc2ncnc(NCCc3ccccc3)c12` [Example 19, 5-methyl-N-(2-phenylethyl)furo[2,3-d]pyrimidin-4-amine] yielded a mortality at 400 ppm of 0%.
`Cc1oc2ncnc(OCCCc3cccnc3)c2c1C` [Example 13, 5,6-dimethyl-4-[3-(3-pyridinyl)propoxy]furo[2,3-d]pyrimidine] showed a mortality at 400 ppm of 0%.
For `Cc1oc2ncnc(NCCSCc3c(F)cccc3Cl)c2c1C` [Example 14, 5,6 dimethyl-N-[2-[[(2-chloro-6-fluorophenyl)methyl]thio]ethyl]furo[2,3-d]pyrimidin-4-amine], the mortality at 400 ppm was 0%.

Each molecule was assayed on southern armyworm (Spodopetra eridania Cramer) (assay: Mite/insect screen, Southern armyworm). Details: Spodoptera eridania; rate 200 ppm, sprayed leaves; read-out: SAW results (percent mortality).
Type: in vivo
Procedure: as §1, §2, §4, §3
SAW refers to Southern armyworm
`Cc1coc2ncnc(NCCc3ccccc3)c12` [Example 19, 5-methyl-N-(2-phenylethyl)furo[2,3-d]pyrimidin-4-amine] gave a mortality at 200 ppm of 0%.
In the case of `Cc1oc2ncnc(OCCCc3cccnc3)c2c1C` [Example 13, 5,6-dimethyl-4-[3-(3-pyridinyl)propoxy]furo[2,3-d]pyrimidine], the mortality at 200 ppm was 0%.
`Cc1oc2ncnc(NCCSCc3c(F)cccc3Cl)c2c1C` [Example 14, 5,6 dimethyl-N-[2-[[(2-chloro-6-fluorophenyl)methyl]thio]ethyl]furo[2,3-d]pyrimidin-4-amine] gave a mortality at 200 ppm of 0%.

Same assay, conditions: Spodoptera eridania; rate 400 ppm, sprayed leaves; read-out: SAW results (percent mortality)
`CCCC(C)(CC)Oc1ccc(CCOc2ncnc3oc(C)c(C)c23)cc1` (stereo not drawn) [Example 74, 5,6-dimethyl-4-[2-[4-(1-ethyl-1-methylbutoxy)phenyl]ethoxy]furo[2,3-d]pyrimidine] showed a mortality at 400 ppm of 0%.
Work on `Cc1coc2ncnc(NCCc3ccccc3)c12` [Example 19, 5-methyl-N-(2-phenylethyl)furo[2,3-d]pyrimidin-4-amine] yielded a mortality at 400 ppm of 0%.
For `Cc1oc2ncnc(OCCCc3cccnc3)c2c1C` [Example 13, 5,6-dimethyl-4-[3-(3-pyridinyl)propoxy]furo[2,3-d]pyrimidine], the mortality at 400 ppm was 0%.
Molecule `Cc1oc2ncnc(NCCSCc3c(F)cccc3Cl)c2c1C` [Example 14, 5,6 dimethyl-N-[2-[[(2-chloro-6-fluorophenyl)methyl]thio]ethyl]furo[2,3-d]pyrimidin-4-amine] has a mortality at 400 ppm of 0%.

— US5486516A, “Furopyrimidine derivatives” (DowElanco, priority 1993, dated 1996)
